# Data as given in patent US9857359B2, “Methods for determining drug efficacy using cereblon-associated proteins” (CELGENE CORPORATION, priority 2012, dated 2018).
# Legend:
# [1] = tested on: Aiolos/IKZF3; experiment: Cyno Monkey dose regimen study, Aiolos Western blotting of PBMC; format: in vivo, Cynomolgus (M. fascicularis); conditions: for Aiolos 42 kD / Aiolos 58 kD: in several monkeys
# Excerpt: As depicted in FIG. 4, the study in Cynomolgus monkeys was divided in two phases: Phase I (7 days of oral doing with test article, Compound B hydrochloride) followed by 28 day test article free period and finally Phase II (28 days of oral dosing with test article). The objective of the Phase I of this study was to determine the onset and duration of pharmacodynamic effect of Compound B. The objective of the Phase II of this study was to explore the relationship the pharmacodynamic effects and safety/tolerability of Compound B. In addition, the toxicokinetic characteristics of Compound B were determined. Doses of Compound B tested were 0.75 mg/kg QD, every other day, or 4 days on, 3 days off. The test and control articles were administered to the appropriate animals by gavage from Days 1 to 7 for Phase I and from Days 1 to 28 in Phase II following dose regimens as described above. Phase I and Phase II were separated by at least a 28 day dose free session. The dose volume for each animal was based on the most recent body weight measurement. A naso/orogastric tube was inserted through a nostril (nasogastric) or through the mouth (orogastric) and advanced into the lower esophagus to the stomach. The animals were temporarily restrained (e.g., manually) for dose administration, and were not sedated. Disposable sterile syringes and naso/orogastric tubes were used for each animal/dose. Each dose were followed by a tap water flush of approximately 5 mL. The dosing formulations were stirred continuously during dose administration. Peripheral blood mononuclear cell subsets analyzed by flow cytometry were: CD45^+/CD3^+/CD20^+/CD16^+, CD45^+/CD20^+, CD45^+/CD3^+, CD45^+/CD3^+/CD4^+, CD45^+/CD3^+/CD8^+, CD45^+/CD3^−/CD16^+, CD45^+/CD3^−/CD14^+. Anti-KLH antibody titers were assayed by ELISA (FIG. 5). The protein levels of Aiolos/IKZF3 were measured in the peripheral blood mononuclear cells as follows. Cynomolgus (M. fascicularis) blood yielded approximately 10 million (10×10^6) mononuclear cells (PBMC) per 2.5 ml whole blood (according to protocol by Non Human Primate Reagent Source, Boston). After the cyno PBMC isolation, each sample was divided into two portions: 7×10^6 cells for protein analysis and 3×10^6 cells for mRNA analysis. All steps were done on ice, all centrifugation in a 4° C. refrigerated centrifuge. RIPA lysis buffer (Pierce, cat#89900) was prepared by adding 10 μL proteinase inhibitors (Pierce, cat#78443) to 1 mL of RIPA buffer. The PBMC was washed once in ice-cold phosphate buffered saline (PBS). Lysis buffer (use 0.25 mL RIPA lysis buffer per 7×10^6 PBMC) was added. The tube was placed on ice for 30 minutes, vortexed every 10 min. The lysate was frozen and store at −80° C. until analysis. The lysate was placed into a QIAshredder tube (QIAGEN, cat#79656) and spun down 30 sec at top speed (13200 rpm) in an Eppendorf benchtop centrifuge (Model 5415 R). […] The supernatant was collected without disturbing cell debris pellet (RIPA reagent enables the extraction of membrane, nuclear and cytoplasmic proteins that will remain in the supernatant). The protein lysate was frozen on dry ice and stored at −80° C. until analysis. The protein concentration was measured using BCA assay. The protein yield was expected to be 0.5-5 μg/μL, or 125-1250 μg total. ≧10 μg protein was loaded per lane for western for IKZF3/Aiolos using antibodies against the human proteins.
# [2] = tested on: interferon regulatory factor 4 (IRF4); experiment: IRF4 expression in DLBCL cells; format: cell-based; conditions: ABC-DLBCL cells
# [3] = tested on: Aiolos; experiment: Aiolos western blots in MM cells, T cells and B cells; format: cell-based, human
# Description: U266 cells were obtained from ATCC (American Type Culture Collection, Manassas, Va., USA). DF15 cells were obtained from John Shaughnessy (University of Arkansas, Little Rock, Ark., USA). CD19+ B cells were purchased from HemaCare BioResearch Products (Van Nuys, Calif.). Cells were grown in RPMI-1640 medium (Cellgro, Manassas, Va.) containing 10% (V/V) heat-inactivated fetal bovine serum (Gibco, Grand Island, N.Y., USA) supplemented with 2 mM glutamine. […] Primary T cells were isolated from human leukocytes (Blood Center of New Jersey, East Orange, N.J.) by centrifugation through FICOLL® centrifugation medium following the ROSETETTESEP™ protocol (Stem Cell Technologies, Vancouver, Canada). […] Dexamethasone (Sigma, St. Louis, Mo.), melphalan (Sigma, St. Louis, Mo.) and bortezomib (Selleck Chemicals, Houston, Tex.) treated was for 6 hours. The final DMSO concentration is 0.1%. Cells were pre-treated with 10 μM MG-132 (Calbiochem Biochemicals, Billerica, Mass.) for 30 minutes prior to drug addition. Cells were harvested, washed in PBS and cell lysates separated on SDS-PAGE gels (Bio-Rad, Hercules, Calif.). Membranes were immunoblotted with anti-Aiolos (Santa Cruz Biotechnology, Dallas, Tex.), anti-Ikaros (Millipore, Billerica, Mass.) and anti-Actin (Sigma, St. Louis, Mo.; or LI-COR Biosciences, Lincoln, Nebr.) and secondary antibodies (LI-COR Biosciences, Lincoln, Nebr.). The blots were analyzed on ODESSEY® imager (LI-COR Biosciences, Lincoln, Nebr.).
# Cell lysates were separated on a 10% TGX SDS-PAGE gel (Bio-Rad) and blotted for Aiolos (Santa Cruz, sc-10198), Ikaros (Millipore, ABD16) and Actin (Sigma, AC15).
smiles,measurement,setting,value
"O=C1CC[C@H](N2Cc3c(OCc4ccc(CN5CCOCC5)cc4)cccc3C2=O)C(=O)N1 [Compound B, 3-(4-((4-(morpholinomethyl)benzyl)oxy)-1-oxoisoindolin-2-yl)piperidine-2,6-dione]",Aiolos expression,"[1]; Cyno monkeys, all dosing regimens",generally inhibits the expression of Aiolos
same,Aiolos 42 kD,"[1]; Group 2, QD dosing",increased Aiolos 42 kD
same,Aiolos 58 kD,"[1]; Group 2, QD dosing",reduced Aiolos 58 kD
same,Aiolos 42 kD,"[1]; Group 3, Q2D dosing",increased Aiolos 42 kD
same,Aiolos 58 kD,"[1]; Group 3, Q2D dosing",reduced Aiolos 58 kD
same,Aiolos 42 kD,"[1]; Group 4, 4 day/week dosing",increased Aiolos 42 kD
same,Aiolos 58 kD,"[1]; Group 4, 4 day/week dosing",reduced Aiolos 58 kD
Nc1cccc2c1CN(C1CCC(=O)NC1=O)C2=O (centres unmarked) [lenalidomide],IRF4 level associated with tumoricidal effect,[2],downregulation of interferon regulatory factor 4 (IRF4)
"Nc1cccc2c1C(=O)N(C1CCC(=O)NC1=O)C2=O (centres unmarked) [pomalidomide, reference compound]",Aiolos expression,"[3]; 10 μM lenalidomide, 1 μM pomalidomide, U266, DF15 MM cells, primary CD3+ T cells, primary CD19+ B cells, cycloheximide treated U266",reduced the expression of Aiolos and Ikaros
same,Reduction of Aiolos levels compared with other treatment compounds for MM,[3]; MM cells,unique to immunomodulatory compounds provided herein
same,Aiolos expression,"[3]; six MM cell lines (OPM-2, RPMI-8226, LP-1, U266, H929 and JJN3), various concentrations",significantly inhibited Aiolos and Ikaros expression
